Results as given in patent US8741906B2 (priority 2011, dated 2014).
Read-outs that look alike come from different tables or passages of the source.

Columns and labels:
human CB2 receptors = biological target: T1, human CB2 receptors (Homo sapiens, UniProt P34972); assay: functional cAMP assay, human CB2; type: cell-based
T1 construct: expressed in transfected cells; host or cells: CHO cells
Method in brief: (§1)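 CHO cells with human CB1 or CB2 were switched to Krebs Ringer bicarbonate buffer with 1 mM IBMX for 30 min at 30 °C, then given compound for 30 min at 30 °C. cAMP was measured by time-resolved FRET against a cAMP standard curve, and EC50 values were calculated.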

human CB1 receptors = biological target: T2, human CB1 receptors (Homo sapiens, UniProt P21554); assay: functional cAMP assay, human CB1; type: cell-based
T2 construct: expressed in transfected cells; host or cells: CHO cells
T2 sequence (P21554 whole entry): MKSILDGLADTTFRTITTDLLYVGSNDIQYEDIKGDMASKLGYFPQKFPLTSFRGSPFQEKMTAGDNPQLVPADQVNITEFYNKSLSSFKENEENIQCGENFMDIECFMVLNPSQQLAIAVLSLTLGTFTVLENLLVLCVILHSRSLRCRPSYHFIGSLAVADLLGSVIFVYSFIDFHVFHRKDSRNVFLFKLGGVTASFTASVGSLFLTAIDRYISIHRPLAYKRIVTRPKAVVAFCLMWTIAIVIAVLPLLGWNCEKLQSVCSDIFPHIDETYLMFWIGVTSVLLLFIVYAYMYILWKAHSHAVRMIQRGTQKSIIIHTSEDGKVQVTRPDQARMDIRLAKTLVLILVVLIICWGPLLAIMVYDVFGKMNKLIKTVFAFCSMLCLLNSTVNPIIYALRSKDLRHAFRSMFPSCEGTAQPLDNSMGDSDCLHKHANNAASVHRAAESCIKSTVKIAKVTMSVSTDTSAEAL
Method in brief: as §1

[1] = CHO cells expressing human CB2, cAMP, read-out: human CB2 EC50
[2] = CHO cells expressing human CB1, cAMP, read-out: human CB1 EC50

T1 sequence (P34972 whole entry): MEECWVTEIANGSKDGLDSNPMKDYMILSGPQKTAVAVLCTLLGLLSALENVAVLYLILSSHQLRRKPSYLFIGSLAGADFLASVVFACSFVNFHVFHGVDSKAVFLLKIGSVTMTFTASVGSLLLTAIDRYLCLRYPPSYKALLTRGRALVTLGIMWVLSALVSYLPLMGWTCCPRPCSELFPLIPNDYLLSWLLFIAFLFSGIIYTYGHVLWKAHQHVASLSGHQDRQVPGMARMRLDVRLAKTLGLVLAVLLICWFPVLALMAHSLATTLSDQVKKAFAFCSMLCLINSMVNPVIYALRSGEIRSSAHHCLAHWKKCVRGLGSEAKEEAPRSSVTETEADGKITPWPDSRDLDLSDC

SMILES	EC50 (human CB2 receptors; [1]) [µM]	EC50 (human CB1 receptors; [2]) [µM]	EC50 (human CB2 receptors) [µM]	EC50 (human CB1 receptors) [µM]
COc1nc(C(C)(C)C)nc2c1nnn2Cc1ccccc1Cl [Example 207, 5-tert-Butyl-3-(2-chloro-benzyl)-7-methoxy-3H-[1,2,3]triazolo[4,5-d]pyrimidine]	0.068	> 10		
CCOc1nc(C(C)(C)C)nc2c1nnn2Cc1ccccc1Cl [Example 208, 5-tert-Butyl-3-(2-chloro-benzyl)-7-ethoxy-3H-[1,2,3]triazolo[4,5-d]pyrimidine]	0.0092	> 10		
CC(C)Oc1nc(C(C)(C)C)nc2c1nnn2Cc1ccccc1Cl [Example 209, 5-tert-Butyl-3-(2-chloro-benzyl)-7-isopropoxy-3H-[1,2,3]triazolo[4,5-d]pyrimidine]	0.016	> 10		
CC(C)(C)c1nc(OCC2CC2)c2nnn(Cc3ccccc3Cl)c2n1 [Example 210, 5-tert-Butyl-3-(2-chloro-benzyl)-7-cyclopropylmethoxy-3H-[1,2,3]triazolo[4,5-d]pyrimidine]	0.0167	> 10		
CC(Oc1nc(C(C)(C)C)nc2c1nnn2Cc1ccccc1Cl)C1CC1 (centres unmarked) [Example 211, 5-tert-Butyl-3-(2-chloro-benzyl)-7-(1-cyclopropyl-ethoxy)-3H-[1,2,3]triazolo[4,5-d]pyrimidine]	0.0986	> 10		
CC(C)(C)c1nc(OC2CCCC2)c2nnn(Cc3ccccc3Cl)c2n1 [Example 212, 5-tert-Butyl-3-(2-chloro-benzyl)-7-cyclopentyloxy-3H-[1,2,3]triazolo[4,5-d]pyrimidine]	0.022	> 10		
CC(C)(C)COc1nc(C(C)(C)C)nc2c1nnn2Cc1ccccc1Cl [Example 213, 5-tert-Butyl-3-(2-chloro-benzyl)-7-(2,2-dimethyl-propoxy)-3H-[1,2,3]triazolo[4,5-d]pyrimidine]	0.0596	> 10		
CC(Oc1nc(C(C)(C)C)nc2c1nnn2Cc1ccccc1Cl)C(F)(F)F (centres unmarked) [Example 214, 5-tert-Butyl-3-(2-chloro-benzyl)-7-(2,2,2-trifluoro-1-methyl-ethoxy)-3H-[1,2,3]triazolo[4,5-d]pyrimidine]	0.0094	> 10		
C[C@H](Oc1nc(C(C)(C)C)nc2c1nnn2Cc1ccccc1Cl)C(F)(F)F [Example 215, 5-tert-Butyl-3-(2-chloro-benzyl)-7-((S)-2,2,2-trifluoro-1-methyl-ethoxy)-3H-[1,2,3]triazolo[4,5-d]pyrimidine]	0.0247	> 10		
C[C@@H](Oc1nc(C(C)(C)C)nc2c1nnn2Cc1ccccc1Cl)C(F)(F)F [Example 216, 5-tert-Butyl-3-(2-chloro-benzyl)-7-((R)-2,2,2-trifluoro-1-methyl-ethoxy)-3H-[1,2,3]triazolo[4,5-d]pyrimidine]	0.0104	> 10		
CC(C)(C)c1nc(N2CC[C@H](O)C2)c2nnn(Cc3ccccc3)c2n1 [Example 217, (3S)-1-(3-benzyl-5-tert-butyl-triazolo[4,5-d]pyrimidin-7-yl)pyrrolidin-3-ol]	0.0033	> 10		
CC(C)(C)c1nc(N2CCC(O)C2)c2nnn(Cc3ccccc3Cl)c2n1 (centres unmarked) [Example 218, 1-(5-tert-butyl-3-(2-chlorobenzyl)-3H-[1,2,3]triazolo[4,5-d]pyrimidin-7-yl)pyrrolidin-3-ol]	0.0005	> 10		
Cn1nnnc1Cn1nnc2c(N3CC[C@@H](O)C3)nc(C(C)(C)C)nc21 [Example 219, (R)-1-(5-tert-butyl-3-((1-methyl-1H-tetrazol-5-yl)methyl)-3H-[1,2,3]triazolo[4,5-d]pyrimidin-7-yl)pyrrolidin-3-ol]			0.0329	> 10
Cn1nnnc1Cn1nnc2c(N3CCC(O)C3)nc(C(C)(C)C)nc21 (centres unmarked) [Example 220, 1-(5-tert-butyl-3-((1-methyl-1H-tetrazol-5-yl)methyl)-3H-[1,2,3]triazolo[4,5-d]pyrimidin-7-yl)pyrrolidin-3-ol]			0.0047	> 10
CC(C)(C)c1nc(N2CC[C@](C)(O)C2)c2nnn(Cc3ccccc3Cl)c2n1 [Example 221-a, (S)-1-(5-tert-butyl-3-(2-chlorobenzyl)-3H-[1,2,3]triazolo[4,5-d]pyrimidin-7-yl)-3-methylpyrrolidin-3-ol]	0.003	1.8		
CC(C)(C)c1nc(N2CC[C@@](C)(O)C2)c2nnn(Cc3ccccc3Cl)c2n1 [Example 221-b, (R)-1-(5-tert-butyl-3-(2-chlorobenzyl)-3H-[1,2,3]triazolo[4,5-d]pyrimidin-7-yl)-3-methylpyrrolidin-3-ol]	0.007	0.853		

SMILES	EC50 (human CB2 receptors; [1]) [µM]	EC50 (human CB1 receptors; [2]) [µM]	EC50 (human CB2 receptors) [µM]	EC50 (human CB1 receptors) [µM]
CC(C)(C)c1nc(N2CC[C@](C)(O)C2)c2nnn(Cc3ccccc3C(F)(F)F)c2n1 [Example 222-a, (S)-1-(5-tert-butyl-3-(2-(trifluoromethyl)benzyl)-3H-[1,2,3]triazolo[4,5-d]pyrimidin-7-yl)-3-methylpyrrolidin-3-ol]	0.0008	0.894		
CC(C)(C)c1nc(N2CC[C@@](C)(O)C2)c2nnn(Cc3ccccc3C(F)(F)F)c2n1 [Example 222-b, (R)-1-(5-tert-butyl-3-(2-(trifluoromethyl)benzyl)-3H-[1,2,3]triazolo[4,5-d]pyrimidin-7-yl)-3-methylpyrrolidin-3-ol]	0.0052	> 10		
CC(C)(C)c1nc(N2CC[C@](C)(O)C2)c2nnn(Cc3ccccc3S(C)(=O)=O)c2n1 [Example 223-a, (S)-1-(5-tert-butyl-3-(2-(methylsulfonyl)benzyl)-3H-[1,2,3]triazolo[4,5-d]pyrimidin-7-yl)-3-methylpyrrolidin-3-ol]	0.0004	0.241		
CC(C)(C)c1nc(N2CC[C@@](C)(O)C2)c2nnn(Cc3ccccc3S(C)(=O)=O)c2n1 [Example 223-b, (R)-1-(5-tert-butyl-3-(2-(methylsulfonyl)benzyl)-3H-[1,2,3]triazolo[4,5-d]pyrimidin-7-yl)-3-methylpyrrolidin-3-ol]	0.003	0.246		
CC(C)(C)c1nc(N2CC[C@](C)(O)C2)c2nnn(Cc3ncccc3Cl)c2n1 [Example 224-a, (S)-1-(5-tert-butyl-3-((3-chloropyridin-2-yl)methyl)-3H-[1,2,3]triazolo[4,5-d]pyrimidin-7-yl)-3-methylpyrrolidin-3-ol]	0.0011	0.899		
CC(C)(C)c1nc(N2CC[C@@](C)(O)C2)c2nnn(Cc3ncccc3Cl)c2n1 [Example 224-b, (R)-1-(5-tert-butyl-3-((3-chloropyridin-2-yl)methyl)-3H-[1,2,3]triazolo[4,5-d]pyrimidin-7-yl)-3-methylpyrrolidin-3-ol]	0.0064	> 10		
Cc1nnc(Cn2nnc3c(N4CC[C@](C)(O)C4)nc(C(C)(C)C)nc32)o1 [Example 225-a, (S)-1-(5-tert-butyl-3-((5-methyl-1,3,4-oxadiazol-2-yl)methyl)-3H-[1,2,3]triazolo[4,5-d]pyrimidin-7-yl)-3-methylpyrrolidin-3-ol]	0.0291	> 10		
Cc1nnc(Cn2nnc3c(N4CC[C@@](C)(O)C4)nc(C(C)(C)C)nc32)o1 [Example 225-b, (R)-1-(5-tert-butyl-3-((5-methyl-1,3,4-oxadiazol-2-yl)methyl)-3H-[1,2,3]triazolo[4,5-d]pyrimidin-7-yl)-3-methylpyrrolidin-3-ol]	0.175	> 10		
Cc1noc(Cn2nnc3c(N4CC[C@](C)(O)C4)nc(C(C)(C)C)nc32)n1 [Example 226-a, (S)-1-(5-tert-butyl-3-((3-methyl-1,2,4-oxadiazol-5-yl)methyl)-3H-[1,2,3]triazolo[4,5-d]pyrimidin-7-yl)-3-methylpyrrolidin-3-ol]	0.057	> 10		
Cc1noc(Cn2nnc3c(N4CC[C@@](C)(O)C4)nc(C(C)(C)C)nc32)n1 [Example 226-b, (R)-1-(5-tert-butyl-3-((3-methyl-1,2,4-oxadiazol-5-yl)methyl)-3H-[1,2,3]triazolo[4,5-d]pyrimidin-7-yl)-3-methylpyrrolidin-3-ol]	0.233	> 10		
Cn1nnnc1Cn1nnc2c(N3CC[C@](C)(O)C3)nc(C(C)(C)C)nc21 [Example 227-a, (S)-1-(5-tert-butyl-3-((1-methyl-1H-tetrazol-5-yl)methyl)-3H-[1,2,3]triazolo[4,5-d]pyrimidin-7-yl)-3-methylpyrrolidin-3-ol]	0.0187	> 10		
Cn1nnnc1Cn1nnc2c(N3CC[C@@](C)(O)C3)nc(C(C)(C)C)nc21 [Example 227-b, (R)-1-(5-tert-butyl-3-((1-methyl-1H-tetrazol-5-yl)methyl)-3H-[1,2,3]triazolo[4,5-d]pyrimidin-7-yl)-3-methylpyrrolidin-3-ol]	0.0435	> 10		
Cc1nonc1Cn1nnc2c(N3CC[C@](C)(O)C3)nc(C(C)(C)C)nc21 [Example 228-a, (S)-1-(5-tert-butyl-3-((4-methyl-1,2,5-oxadiazol-3-yl)methyl)-3H-[1,2,3]triazolo[4,5-d]pyrimidin-7-yl)-3-methylpyrrolidin-3-ol]	0.0018	> 10		
Cc1nonc1Cn1nnc2c(N3CC[C@@](C)(O)C3)nc(C(C)(C)C)nc21 [Example 228-b, (R)-1-(5-tert-butyl-3-((4-methyl-1,2,5-oxadiazol-3-yl)methyl)-3H-[1,2,3]triazolo[4,5-d]pyrimidin-7-yl)-3-methylpyrrolidin-3-ol]	0.0033	> 10		
CC(C)(C)c1nc(N2CC[C@](C)(O)C2)c2nnn(CCC(F)(F)F)c2n1 [Example 229-a, (S)-1-(5-tert-butyl-3-(3,3,3-trifluoropropyl)-3H-[1,2,3]triazolo[4,5-d]pyrimidin-7-yl)-3-methylpyrrolidin-3-ol]	0.0304	> 10		
